Test results: patent US20260284208A1, “SYSTEM” (Oxford University Innovation Limited, priority 2023, published 2026)

System: library of 8,380 IKZF3 degrons (ZF-eGFP/mCherry reporter) in Jurkat cells
Test: Pooled library screen (FACS, NGS, limma voom LogFC of positive vs negative read counts)
Assay type: cell-based, human
Protocol: A library of 8,380 IKZF3 degrons was cloned into pLVX-Sprout to create the eGFP/mCherry protein degradation reporter plasmid pool. A lentivirus pool was then generated using the Lenti-X lentiviral vector production method.
Jurkat cells were transduced at a multiplicity of infection of <0.3 with the lentivirus vector library in order to maximise the number of cells with a single integration. Transductions were carried out in 6 well TC-treated cell culture dishes (Falcon) with 3×10^6 cells per well. Cells were incubated for 2 days at 37° C. and 5% CO2 before the supernatant was removed and replaced with fresh media. 6 days post-transduction, mCherry+ cells were isolated via FACS using the FACS Aria Fusion (BD) in a buffer containing PBS (Gibco), 2 mM EDTA (Gibco), 25 mM HEPES (Sigma) and 1% BSA (Sigma). 8 days later, cells were treated with DMSO or a thalidomide analog for 18 hours at 37° C. and 5% CO2. mCherry+GFPlow and NOT(mCherry+GFPlow) cells were sorted by FACS using the FACS Aria Fusion (BD). DMSO treated cells were used to set the mCherry+GFPlow gate and dead cells were excluded from sorting by staining cells with 1 μg/mL DAPI (ThermoFisher). gDNA was isolated using the Maxwell RSC 48 (Promega). gDNA from cells that were unsorted and untreated were also isolated to determine the library representation on the day of compound treatment. Throughout the screen >600× coverage of the library was maintained. 3 biological replicates were carried out with a new transduction taking place each time.
A two-step PCR was used where the first PCR (PCR1) amplified the integrated degron sequence from gDNA and the second PCR (PCR2) added Illumina adaptors and barcodes to permit multiplexing. See Supp F for PCR1 and PCR2 primers. Q5 Hot Start High-Fidelity 2× Master Mix (New England Biolabs) was used for both PCRs. Sufficient gDNA was amplified in PCR1 in order to maintain >600× coverage and amplicons were purified using solid phase reversible immobilization (SPRI) beads (Beckman Coulter). Purified PCR1 products were analysed on the Tapestation 4200 (Agilent) to confirm purity prior to proceeding to PCR2. Sufficient PCR1 product was amplified in PCR2 in order to maintain >600× coverage and amplicons were run on a 2% agarose TAE gel. Target bands were excised and purified using the NucleoSpin Gel and PCR Clean-up Kit (Machery Nagel). Amplicons were analysed on the Tapestation 4200 and quantified using Qubit dsDNA HS kit (ThermoFisher). PCR products were pooled and sequenced as paired-reads on the NovaSeq (Illumina) using a SP2 200 cycles kit (Illumina).
Count distributions, percentage of read mapping, library coverage and replicate correlation per sample were assessed for QC purposes.
To carry out the library screen, we used the same plasmid construct as in our earlier flow cytometry assays, but pooling all 8,380 mutants together into one Jurkat population, ensuring a copy number of one plasmid per cell (FIG. 4B). […] These GFP-negative cells were then separated from the remaining GFP-positive population using fluorescence activated cell sorting (FACS). These two populations were then sequenced and the relative abundance of every mutant in both populations compared to provide a log FC value for each mutant sequence. This value indicated how frequently a sequence is observed in the GFP-negative population relative to the GFP-positive population, and therefore how effective a degron it is for that particular IMID compound.

Structure (SMILES): O=C1CCC(N2C(=O)c3ccccc3C2=O)C(=O)N1 (centres unmarked) [A32, 2-(2,6-dioxopiperidin-3-yl)isoindoline-1,3-dione]
- A32_logFC (Degron-ID 794, SEQ ID NO 61, 46F_47E_49E_50I_52G_53A_54R_55F_67L): 3.549
- A32_logFC (Degron-ID 834, SEQ ID NO 125, 46F_47E_49E_50V_52G_53A_54R_55F_67L): 3.292
- A32_logFC (Degron-ID 911, SEQ ID NO 130, 46F_47E_49P_50I_52G_53A_54N_55F_67L): 3.269
- A32_logFC (Degron-ID 914, SEQ ID NO 108, 46F_47E_49P_50I_52G_53A_54R_55F_67L): 3.367
- A32_logFC (Degron-ID 915, SEQ ID NO 119, 46F_47E_49P_50I_52G_53A_54S_55F_67L): 3.325
- A32_logFC (Degron-ID 917, SEQ ID NO 116, 46F_47E_49P_50I_52G_53A_54V_55F_67L): 3.331
- A32_logFC (Degron-ID 1752, SEQ ID NO 91, 46F_47I_49E_50I_52G_53A_54P_55F_67L): 3.433
- A32_logFC (Degron-ID 2392, SEQ ID NO 93, 46F_47L_49P_50V_52G_53A_54P_55F_67L): 3.414
- A32_logFC (Degron-ID 2881, SEQ ID NO 123, 46F_47Q_49D_50I_52G_53A_54C_55F_67L): 3.299
- A32_logFC (Degron-ID 2887, SEQ ID NO 82, 46F_47Q_49D_50I_52G_53A_54I_55F_67L): 3.467
- A32_logFC (Degron-ID 2888, SEQ ID NO 126, 46F_47Q_49D_50I_52G_53A_54K_55F_67L): 3.282
- A32_logFC (Degron-ID 2892, SEQ ID NO 112, 46F_47Q_49D_50I_52G_53A_54P_55F_67L): 3.346
- A32_logFC (Degron-ID 2941, SEQ ID NO 79, 46F_47Q_49E_50I_52G_53A_54C_55F_67L): 3.477
- A32_logFC (Degron-ID 2943, SEQ ID NO 71, 46F_47Q_49E_50I_52G_53A_54E_55F_67L): 3.525
- A32_logFC (Degron-ID 2948, SEQ ID NO 84, 46F_47Q_49E_50I_52G_53A_54K_55F_67L): 3.461
- A32_logFC (Degron-ID 2949, SEQ ID NO 65, 46F_47Q_49E_50I_52G_53A_54L_55F_67L): 3.534
- A32_logFC (Degron-ID 2950, SEQ ID NO 54, 46F_47Q_49E_50I_52G_53A_54M_55F_67L): 3.574
- A32_logFC (Degron-ID 2953, SEQ ID NO 58, 46F_47Q_49E_50I_52G_53A_54Q_55F_67L): 3.557
- A32_logFC (Degron-ID 2956, SEQ ID NO 137, 46F_47Q_49E_50I_52G_53A_54T_55F_67L): 3.256
- A32_logFC (Degron-ID 2988, SEQ ID NO 97, 46F_47Q_49E_50V_52G_53A_54K_55F_67L): 3.401
- A32_logFC (Degron-ID 2990, SEQ ID NO 72, 46F_47Q_49E_50V_52G_53A_54M_55F_67L): 3.522
- A32_logFC (Degron-ID 2991, SEQ ID NO 55, 46F_47Q_49E_50V_52G_53A_54N_55F_67L): 3.561
- A32_logFC (Degron-ID 2992, SEQ ID NO 64, 46F_47Q_49E_50V_52G_53A_54P_55F_67L): 3.535
- A32_logFC (Degron-ID 2995, SEQ ID NO 67, 46F_47Q_49E_50V_52G_53A_54S_55F_67L): 3.531
- A32_logFC (Degron-ID 3000, SEQ ID NO 100, 46F_47Q_49N_50I_52G_53A_54A_55F_67L): 3.386
- A32_logFC (Degron-ID 3001, SEQ ID NO 105, 46F_47Q_49N_50I_52G_53A_54C_55F_67L): 3.375
- A32_logFC (Degron-ID 3007, SEQ ID NO 7, 46F_47Q_49N_50I_52G_53A_54I_55F_67L): 3.811
- A32_logFC (Degron-ID 3008, SEQ ID NO 134, 46F_47Q_49N_50I_52G_53A_54K_55F_67L): 3.259
- A32_logFC (Degron-ID 3013, SEQ ID NO 127, 46F_47Q_49N_50I_52G_53A_54Q_55F_67L): 3.279
- A32_logFC (Degron-ID 3014, SEQ ID NO 133, 46F_47Q_49N_50I_52G_53A_54R_55F_67L): 3.262
- A32_logFC (Degron-ID 3015, SEQ ID NO 114, 46F_47Q_49N_50I_52G_53A_54S_55F_67L): 3.343
- A32_logFC (Degron-ID 3016, SEQ ID NO 6, 46F_47Q_49N_50I_52G_53A_54T_55F_67L): 3.867
- A32_logFC (Degron-ID 3017, SEQ ID NO 80, 46F_47Q_49N_50I_52G_53A_54V_55F_67L): 3.473
- A32_logFC (Degron-ID 3047, SEQ ID NO 106, 46F_47Q_49N_50V_52G_53A_54I_55F_67L): 3.374
- A32_logFC (Degron-ID 3057, SEQ ID NO 94, 46F_47Q_49N_50V_52G_53A_54V_55F_67L): 3.409
- A32_logFC (Degron-ID 3060, SEQ ID NO 68, 46F_47Q_49P_50I_52G_53A_54A_55F_67L): 3.529
- A32_logFC (Degron-ID 3062, SEQ ID NO 8, 46F_47Q_49P_50I_52G_53A_54D_55F_67L): 3.806
- A32_logFC (Degron-ID 3066, SEQ ID NO 120, 46F_47Q_49P_50I_52G_53A_54H_55F_67L): 3.318
- A32_logFC (Degron-ID 3067, SEQ ID NO 10, 46F_47Q_49P_50I_52G_53A_54I_55F_67L): 3.792
- A32_logFC (Degron-ID 3068, SEQ ID NO 90, 46F_47Q_49P_50I_52G_53A_54K_55F_67L): 3.436
- A32_logFC (Degron-ID 3069, SEQ ID NO 107, 46F_47Q_49P_50I_52G_53A_54L_55F_67L): 3.373
- A32_logFC (Degron-ID 3071, SEQ ID NO 50, 46F_47Q_49P_50I_52G_53A_54N_55F_67L): 3.58
- A32_logFC (Degron-ID 3074, SEQ ID NO 62, 46F_47Q_49P_50I_52G_53A_54R_55F_67L): 3.549
- A32_logFC (Degron-ID 3075, SEQ ID NO 11, 46F_47Q_49P_50I_52G_53A_54S_55F_67L): 3.79
- A32_logFC (Degron-ID 3076, SEQ ID NO 56, 46F_47Q_49P_50I_52G_53A_54T_55F_67L): 3.56
- A32_logFC (Degron-ID 3079, SEQ ID NO 109, 46F_47Q_49P_50I_52G_53A_54Y_55F_67L): 3.361
- A32_logFC (Degron-ID 3080, SEQ ID NO 129, 46F_47Q_49P_50Q_52G_53A_54A_55F_67L): 3.273
- A32_logFC (Degron-ID 3081, SEQ ID NO 138, 46F_47Q_49P_50Q_52G_53A_54C_55F_67L): 3.255
- A32_logFC (Degron-ID 3097, SEQ ID NO 92, 46F_47Q_49P_50Q_52G_53A_54V_55F_67L): 3.423
- A32_logFC (Degron-ID 3101, SEQ ID NO 83, 46F_47Q_49P_50V_52G_53A_54C_55F_67L): 3.465
